Assay results taken from patent publication US20260224595A1, “COMPOUNDS FOR THE TREATMENT OF MYOTONIC DYSTROPHY” (ETH ZURICH, priority 2022, published 2026).

Tested on: miR-122 targets
Assay: RNA-Seq of miR-122 targetome (negative control)
Format: cell-based, human
Protocol: As described in Example 3, total RNA was isolated from DM-patient and healthy cells, and cDNA libraries were prepared for three conditions (healthy volunteer (HV); DM; DM+Compound II) for DM1 and DM2 backgrounds. The expression levels of predicted targetomes of miRNAs let-7, miR-1, miR-9, miR-29, miR-30, miR-107 and miR-181 were then compared, using miR-122 as well as more than 2,000 transcripts that are not predicted targets of any miRNA as negative controls. Three pair-wise comparisons were performed to measure: i) how a targetome varies between healthy and diseased cells (HV versus DM), ii) how a targetome responds to treatment with the inventive compounds (DM versus DM+Compound II) and, iii) how a Compound II-treated DM-targetome compares to that of a healthy signature. For each pair-wise comparison, the third dataset was used as a reference and the fold changes were calculated for each target transcript (e.g. DM1 vs. DM1+Compound II, with fold changes calculated relative to HV).
Primary myoblasts or myotubes derived from DM1 or DM2 patient samples and non-DM healthy control individuals were cultured for 90% confluence and then treated with 120 μM Compound II for 72 h. […] Quality and size distribution of the generated libraries was validated using an Agilent 2100 bioanalyzer with high-sensitivity RNA chip (Agilent) and RNA yield was measured using the Qubit […] HS Assay Kit followed by pooling of the libraries in batches of 12 and sequencing of […] pooled library on an Nextseq 500/High Output Flow Cell Cartridge using a paired end, 2×76 reads, single index protocol.
RNA-Seq reads were mapped to the human genome (build GRCh38) using STAR (Dobin et al., (2013). STAR: ultrafast universal RNA-seq aligner. Bioinformatics 29, 15-21) with gene annotations from gencode (www.gencodegenes.org; version 40). Reads mapping uniquely to exons were counted for each gene using htseq-count (Anders et al., (2015). HTSeq—a Python framework to work with high-throughput sequencing data. Bioinformatics 31, 166-169) with the parameter -s reverse and -m intersection_strict. […]

Compound: CC(=O)N(C)c1cccc(-c2ccc3nnc(C)n3n2)c1 [Compound II]
- change of miR-122 targets (DM1 and DM2 myotubes, 120 μM, 72 h): not significantly changed
- change of miR-122 targets (DM1 myoblasts, 120 μM, 72 h): not significantly changed
- change of miR-122 targets (DM2 myoblasts, compared to targetomes of other miRNAs): weaker change
